The text below walks through data of patent US7056663B2, “Prognostic methods for breast cancer” (California Pacific Medical Center, priority 2001, dated 2006).

The test has as its system TRβ1 gene. Kind of test: RT-PCR for TRβ1 transcript in breast cancer cell lines after 5-azaC treatment. Format: cell-based. As to conditions: MCF7 breast cancer cell line. The text has this: The region of most common LOH in the experiments described in Example I include the region of the TRβ1 gene. Therefore, we evaluated TRβ1 gene expression in breast cancer cell lines by RT-PCR, using primers encompassing exons 4–7. The primers used for RT-PCR of the TRβ1 transcript were TRβ-F 5′ […] 3′ (forward) (SEQ ID NO:1) and TRβ-R 5′ TGAGCTCCCATTCCTCGTC 3′ (reverse) (SEQ ID NO:2). Presence of a TRβ1 transcript was indicated by the presence of a 500 bp RT-PCR product using template mRNA isolated from non-cancerous or breast cancer cell lines. As a control, corresponding GAPDH transcript levels for each sample was measured within the same PCR reaction mixture by amplifying a 250 bp fragment using the following primers 5′ […] 3′ (forward) (SEQ ID NO:3) and 5′ […] 3′ (reverse) (SEQ ID NO:4). […] Fluorescent in situ hybribization (FISH) analysis was carried out on the cells to determine the copy number of the TRβ1 gene. FISH data is reported as the percentage of cells in which TRβ1 copy number was fewer than the centromeric signal for chromosome 3. The breast cancer cell lines that were used in this study include DU4475, MDA435, SKBR3, MCF7, BT20, MDA157, MDA231, BT474, CAMA1 and T47D. All of these cell lines are available from American Type Culture Collection, Manassas, Va.

Regarding `Nc1ncn([C@@H]2O[C@H](CO)[C@@H](O)[C@H]2O)c(=O)n1` [5-azaC], the “RT-PCR for TRβ1, before versus after 5-aza C treatment” value is “*RT-PCR for MCF7 was the same before and after 5-aza C treatment”.
